# Results reported in US7078195B2, “Antibiotics AA-896” (Wyeth Holdings Corporation, priority 2001, dated 2006).
# Tests used:
# Test in all cases: Broth dilution MIC
# Assay type in all cases: cell-based
# E. cloacae GC 3783 = settings: 18 hours at 35° C.; for Antimicrobial Activity (MIC): Mueller-Hinton broth
# Experimental: (§1) The in vitro antibacterial activity of AA-896-A1, AA-896-A2, AA-896-A3, AA-896-A4, AA-896-A5, AA-896-B1, AA-896-B2, AA-896-B3, AA-896-B4, AA-896-B5, AA-896-B6, AA-896-B7, AA-896-C1, AA-896-C2, AA-896-C3, AA-896-C4, AA-896-D1, AA896-D2 and AA-896-D3 is determined against a spectrum of Gram-positive and Gram-negative bacteria by a standard broth dilution method. Serial dilution of the compounds are made in Mueller-Hinton broth and inoculated with a bacterial suspension. The lowest concentration of compound that inhibited the growth of a bacterial strain after 18 hours of incubation at 35° C. is reported as the minimal inhibitory concentration (MIC) for that strain.
# E. coli GC 2203 = settings: 18 hours at 35° C.; for Antimicrobial Activity (MIC): Mueller-Hinton broth
# Experimental: as §1
# E. coli GC 4559 = settings: 18 hours at 35° C.; for Antimicrobial Activity (MIC): Mueller-Hinton broth
# Experimental: as §1
# S. aureus GC 4536 = settings: 18 hours at 35° C.; for Antimicrobial Activity (MIC): Mueller-Hinton broth
# Experimental: as §1
# S. aureus GC 2216 = settings: 18 hours at 35° C.; for Antimicrobial Activity (MIC): Mueller-Hinton broth
# Experimental: as §1
# P. aeruginosa GC 2214 = settings: 18 hours at 35° C.; for Antimicrobial Activity (MIC): Mueller-Hinton broth
# Experimental: as §1
# CNS GC 4537 = settings: Mueller-Hinton broth, 18 hours at 35° C.
# Experimental: as §1
# CNS GC 4547 = settings: Mueller-Hinton broth, 18 hours at 35° C.
# Experimental: as §1
# E. faecalis GC 842 = settings: 18 hours at 35° C.; for Antimicrobial Activity (MIC): Mueller-Hinton broth
# Experimental: as §1
# S. marcescens GC 4077 = settings: 18 hours at 35° C.; for Antimicrobial Activity (MIC): Mueller-Hinton broth
# Experimental: as §1
# E. faecalis GC 2242 = settings: 18 hours at 35° C.; for Antimicrobial Activity (MIC): Mueller-Hinton broth
# Experimental: as §1
# S. aureus GC 1131 = settings: 18 hours at 35° C.; for Antimicrobial Activity (MIC): Mueller-Hinton broth
# Experimental: as §1
# P. rettgeri GC 4530 = settings: 18 hours at 35° C.; for Antimicrobial Activity (MIC): Mueller-Hinton broth
# Experimental: as §1
# E. coli GC 3226 = settings: 18 hours at 35° C.; for Antimicrobial Activity (MIC): Mueller-Hinton broth
# Experimental: as §1
# K. pneumoniae GC 4534 = settings: 18 hours at 35° C.; for Antimicrobial Activity (MIC): Mueller-Hinton broth
# Experimental: as §1
# CNS GC 4538 = settings: Mueller-Hinton broth, 18 hours at 35° C.
# Experimental: as §1
# E. faecalis GC 4555 = settings: 18 hours at 35° C.; for Antimicrobial Activity (MIC): Mueller-Hinton broth
# Experimental: as §1
# E. coli GC 4560 = settings: 18 hours at 35° C.; for Antimicrobial Activity (MIC): Mueller-Hinton broth
# Experimental: as §1
# M. morganii GC 4531 = settings: 18 hours at 35° C.; for Antimicrobial Activity (MIC): Mueller-Hinton broth
# Experimental: as §1
# P. aeruginosa GC 4532 = settings: 18 hours at 35° C.; for Antimicrobial Activity (MIC): Mueller-Hinton broth
# Experimental: as §1
# E. faecalis GC 242 = settings: Mueller-Hinton broth, 18 hours at 35° C.
# Experimental: as §1
# [1] = read-out: Antimicrobial Activity (MIC)
Antimicrobial Activity (MIC) (E. cloacae GC 3783) [µg/mL],Antimicrobial Activity (MIC) (E. coli GC 2203) [µg/mL],Antimicrobial Activity (MIC) (E. coli GC 4559) [µg/mL],Antimicrobial Activity (MIC) (S. aureus GC 4536) [µg/mL],Antimicrobial Activity (MIC) (S. aureus GC 2216) [µg/mL],Antimicrobial Activity (MIC) (P. aeruginosa GC 2214) [µg/mL],Antimicrobial Activity (MIC) (CNS GC 4537) [µg/mL],Antimicrobial Activity (MIC) (CNS GC 4547) [µg/mL],Antimicrobial Activity (MIC) (E. faecalis GC 842) [µg/mL],Antimicrobial Activity (MIC) (S. marcescens GC 4077) [µg/mL],Antimicrobial Activity (MIC) (E. faecalis GC 2242) [µg/mL],Antimicrobial Activity (MIC) (S. aureus GC 1131) [µg/mL],Antimicrobial Activity (MIC) (P. rettgeri GC 4530) [µg/mL],Antimicrobial Activity (MIC) (E. coli GC 3226) [µg/mL],Antimicrobial Activity (MIC) (K. pneumoniae GC 4534) [µg/mL],Antimicrobial Activity (MIC) (CNS GC 4538) [µg/mL],Antimicrobial Activity (MIC) (E. faecalis GC 4555) [µg/mL],Antimicrobial Activity (MIC) (E. coli GC 4560),Antimicrobial Activity (MIC) (M. morganii GC 4531) [µg/mL],Antimicrobial Activity (MIC) (P. aeruginosa GC 4532) [µg/mL],SMILES,further results
,,,,,,,,,,,,,,,,,,,,"CC(C)C(NC(=O)NC(C(=O)NC(C(=O)NCCCNC(C(=O)O)C(O)C1OC(n2ccc(=O)[nH]c2=O)C(O)C1O)C(OC(=O)CCCCCCCCCCCCN(O)C(=N)N)C(C)C)C1CCNC(=N)N1)C(=O)O [AA-896-A5, 6-[[3-[3-[[13-(Carbamimidoylhydroxyamino)tridecanoyl]oxy]-2-[2-[[(1-carboxy-2-methyl-propyl)carbamoyl]amino]-2-(hexahydro-2-iminopyrimidin-4-yl)acetamido]-4-methyl-pentanamido]propyl]amino]-1,6-dideoxy-1-(3,4-dihydro-2,4-dioxopyrimidin-1(2H)-yl)-β-D-heptofuranuronic acid]","MIC (E. cloacae GC 3783; Enterobacter cloacae, GC3783, Mueller-Hinton broth, read-out: Antimicrobial Activity (MIC)): 1 µg/mL; MIC (E. coli GC 2203; Escherichia coli, GC2203, Mueller-Hinton broth, read-out: Antimicrobial Activity (MIC)): 16 µg/mL; MIC (E. coli GC 4559; Escherichia coli, GC4559, Mueller-Hinton broth, read-out: Antimicrobial Activity (MIC)): 4 µg/mL; MIC (S. aureus GC 4536; Staphylococcus aureus, GC4536, Mueller-Hinton broth, read-out: Antimicrobial Activity (MIC)): 8 µg/mL; MIC (S. aureus GC 2216; Staphylococcus aureus, GC2216, Mueller-Hinton broth, read-out: Antimicrobial Activity (MIC)): 16 µg/mL; MIC (P. aeruginosa GC 2214; Pseudomonas aeruginosa, GC2214, Mueller-Hinton broth, read-out: Antimicrobial Activity (MIC)): 32 µg/mL; MIC (CNS GC 4537; [1]): 16 µg/mL; MIC (CNS GC 4547; [1]): 16 µg/mL; MIC (E. faecalis GC 842; Enterococcus faecalis, GC842, Mueller-Hinton broth, read-out: Antimicrobial Activity (MIC)): > 64 µg/mL; MIC (S. marcescens GC 4077; Serratia marcescens, GC4077, Mueller-Hinton broth, read-out: Antimicrobial Activity (MIC)): > 64 µg/mL; MIC (E. faecalis GC 2242; Enterococcus faecalis, GC2242, Mueller-Hinton broth, read-out: Antimicrobial Activity (MIC)): > 64 µg/mL; MIC (S. aureus GC 1131; Staphylococcus aureus, GC1131, Mueller-Hinton broth, read-out: Antimicrobial Activity (MIC)): 16 µg/mL; MIC (P. rettgeri GC 4530; Providencia rettgeri, GC4530, Mueller-Hinton broth, read-out: Antimicrobial Activity (MIC)): > 64 µg/mL; MIC (E. coli GC 3226; Escherichia coli, GC3226, Mueller-Hinton broth, read-out: Antimicrobial Activity (MIC)): 16 µg/mL; MIC (K. pneumoniae GC 4534; Klebsiella pneumoniae, GC4534, Mueller-Hinton broth, read-out: Antimicrobial Activity (MIC)): 8 µg/mL; MIC (CNS GC 4538; [1]): 4 µg/mL; MIC (E. faecalis GC 4555; Enterococcus faecalis, GC4555, Mueller-Hinton broth, read-out: Antimicrobial Activity (MIC)): 32 µg/mL; MIC (E. coli GC 4560; Escherichia coli, GC4560, Mueller-Hinton broth, read-out: Antimicrobial Activity (MIC)): ≤ 0.06 µg/mL; MIC (M. morganii GC 4531; Morganella morganii, GC4531, Mueller-Hinton broth, read-out: Antimicrobial Activity (MIC)): > 64 µg/mL; MIC (P. aeruginosa GC 4532; Pseudomonas aeruginosa, GC4532, Mueller-Hinton broth, read-out: Antimicrobial Activity (MIC)): 32 µg/mL"
8,64,32,>64,>64,64,>64,>64,>64,>64,>64,>64,>64,64,32,64,>64,<=0.06 μg/ml,>64,>64,"COC1C(OC(C(NCCCNC(=O)C(NC(=O)C(NC(=O)NC(C(=O)O)C(C)C)C2CCNC(=N)N2)C(OC(=O)CCCCC(C)C)C(C)C)C(=O)O)C2OC(n3ccc(=O)[nH]c3=O)C(O)C2O)OC(CN)C1O [AA-896-B6, 5-O-[5-Amino-5-deoxy-2-O-methyl-β-D-ribofuranosyl]-6-[[3-[2-[2-[[(1-carboxy-2-methyl-propyl)carbamoyl]amino]-2-(hexahydro-2-iminopyrimidin-4-yl)acetamido]-4-methyl-3-[(6-methylheptanoyl)oxy]pentanamido]propyl]amino]-1,6-dideoxy-1-(3,4-dihydro-2,4-dioxopyrimidin-1(2H)-yl)-β-D-heptofuranuronic acid]",
16,>64,64,>64,>64,>64,>64,>64,>64,>64,>64,>64,>64,>64,64,>64,>64,<=0.06 μg/ml,>64,>64,"CC(C)CCCCC(=O)OC(C(C)C)C(NC(=O)C(NC(=O)NC(C(=O)O)C(C)C)C1CCNC(=N)N1)C(=O)NCCCNC(C(=O)O)C(OC1OC(CN)C(O)C1O)C1OC(n2ccc(=O)[nH]c2=O)C(O)C1O [AA-896-B7, 5-O-[5-Amino-5-deoxy-β-D-ribofuranosyl]-6-[[3-[2-[2-[[(1-carboxy-2-methylpropyl)-carbamoyl]amino]-2-(hexahydro-2-iminopyrimidin-4-yl)acetamido]-4-methyl-3-[(6-methylheptanoyl)oxy]pentanamido]propyl]amino]-1,6-dideoxy-1-(3,4-dihydro-2,4-dioxopyrimidin-1(2H)-yl)-β-D-heptofuranuronic acid]",
16,16,32,>32,>32,32,>32,>32,>32,>32,,>32,>32,16,>32,>32,>32,0.25 µg/mL,>32,32,"CC(C)CC(NC(=O)C(NC(=O)NC(C(=O)O)C(C)C)C1CCNC(=N)N1)C(=O)NCCCNC(C(=O)O)C(OC1OC(CN)C(O)C1O)C1OC(n2ccc(=O)[nH]c2=O)C(O)C1O [AA-896-D2, 5-O-[5-Amino-5-deoxy-β-D-ribofuranosyl]-6-[[3-[2-[2-[[(1-carboxy-2-methylpropyl)-carbamoyl]amino]-2-(hexahydro-2-iminopyrimidin-4-yl)acetamido]-4-methylpentanamido]-propyl]amino]-1,6-dideoxy-1-(3,4-dihydro-2,4-dioxopyrimidin-1(2H)-yl)-β-D-heptofuran-uronic acid]",Antimicrobial Activity (MIC) (E. faecalis GC 242): >32 µg/mL
